US12557812B2, “Method and composition for water treatment” (BROMINE COMPOUNDS LTD., priority 2019, dated 2026)

Columns and labels:
[1] = system: Pseudomonas aeruginosa biofilm; experiment: Sequential application of CDA then biocide on 3-day-old biofilm grown in CDC biofilm reactor (single tube method); assay type: cell-based; details: biocide 10 ppm
[2] = system: P. aeruginosa strain PA14 biofilm; experiment: Simultaneous application of CDA and biocide on 3-day biofilm in 24-well plates; assay type: cell-based, Pseudomonas aeruginosa; details: 15 ppm DBNPA, 310 nM CDA, two hours (FIG. 3)
Method: (§1) The effect of bromine-containing biocide in combination with CDA on pre-grown biofilms was studied. The experiment was carried out utilizing (A) the P. aeruginosa strain PA14 and (B) mixed bacterial species derived from environmental and industrial water.
(§2) Bacteria were cultured in EPRI medium supplemented with Hutners mineral solution and glucose (0.2%). Microorganisms were incubated at room temperature (22° C.), under aerobic conditions with shaking. The biofilm culture system used included polystyrene 24-well plates that were treated with protein to enhance attachment and growth of biofilm bacteria according to the method described in Davies D G, Marques C N, 2009, J Bacteriol 191:1393-1403.
(§3) Following inoculation with 1 mL bacterial culture, spent medium was removed and replaced with sterile medium every 24 hours for 3 days, and a final medium exchange was performed 3 hours prior to treatment. Additionally, the medium was exchanged prior to treatment in order to remove planktonic bacteria. Treatments consisted of 100 μL of 310 nM CDA and bromine-containing biocide, or bromine-containing biocide alone at concentrations used in commercial water treatment, water was used as a carrier, for a contact time determined by activity of each biocide and ranging from 1 hour to 24 hours, as detailed below for each of the tested biocides.
Following the treatment, the medium from each well was removed by pipet and 1 mL of DE neutralization broth was added in order to stop the treatment. Bacteria from each well were then removed by scraping the biofilm formed in the well with a sterile cell-scraper, and 1.0 mL of culture was transferred to chilled (4° C.) 9.0 mL DE neutralizing broth and homogenized for 15 seconds at 40,000 rpm on ice. Further dilutions were performed prior to enumeration (further neutralizing biocide activity). Recovery of bacteria were tested at different dilutions of biocide in water, in LB medium with thioglycolate and in DE neutralizing broth to ensure the active agent was properly neutralized. Viable bacteria were enumerated via the drop plate method. Each biocide was evaluated using 24-well plates with 8 wells each for the control cultures (Ctl) inoculated with P. aeruginosa but not treated, a CDA minus test (−CDA) treated with bromine-containing biocide only, and a CDA plus test treated with bromine-containing biocide and CDA (+CDA).

[3] = system: undefined mixed microbial biofilm cultures derived from an environmental water source; experiment: Simultaneous CDA and biocide on mixed biofilm from environmental water, 24-well plates; assay type: cell-based; details: 15 ppm DBNPA, 310 nM CDA, two hours (FIG. 5A)
Method: as §1, §2
as §3, with “biocides. […]” for “biocides.”

[4] = system: biofilm culture derived from fresh-water mixed microbial community obtained from cooling tower water; experiment: Simultaneous CDA and biocide on mixed biofilm from cooling tower water, 24-well plates; assay type: cell-based; details: 15 ppm DBNPA, 310 nM CDA, two hours (FIG. 5B)
Method: as §1, §2
as §3, with “biocides. […]” for “biocides.”

[5] = Storage stability of biocide/CDA liquid concentrates (HPLC); assay type: physicochemical; details: Example 6 concentrate C103-PEG200-H2O-CDA-BHT 20:50:30:0.1:0.1; 25° C., two months
Method: 22 mg of cis-2-decenoic acid (CiVentiChem, 96.72% purity) were charged into 50 ml flask, equipped with a stirrer 3.99 gr of C-103 (ICL, batch 640160147) were added, followed by 9.97 gr of PEG200 (Merck 8.07483.5000 Lot 56904983 451), 5.95 gr of DI water and 22 mg of BHT (Aldrich B1378-100G, BCBH9491V). The obtained solution was stirred till complete clarification; sonication at +30° C. is recommended if some particles are observed. Clear colorless solution of a total […] and 20:50:30:0.1:0.1 weight ratio of C103-PEG200-H2O-CDA-BHT was obtained.
The solution was tested to determine the stability of the biocide and CDA and under storage at 25° C. over a two-month period.
47.6 mg or cis-2-decenoic acid (CiVentiChem, 96.72% purity) were charged into 50 ml flask, equipped with a stirrer. 9.01 gr of Bronopol (ICL, batch 17101607) were added, followed by 18.03 gr of propylene glycol (Biolab 16200201 Lot 1007861), 3.0 gr of DI water and 31.2 mg of BHT (Aldrich B1378-100G, BCBH9491V). After stirring for several minutes, undissolved traces of BHT were filtered through filtering paper for BHT particle removal. Clear colorless solution of a total 30 gr and 30:60:10:0.158:0.1 weight ratio of Bronopol-PG-H2O-CDA-BHT was obtained.

[6] = system: P. aeruginosa (ATCC 700888) massive biofilm; experiment: Sequential CDA then biocide on massive biofilm grown in drip flow tubes (modified ASTM 2647-13); assay type: cell-based, Pseudomonas aeruginosa; details: 30.0 ppm DBNPA 3 h after 310 nM CDA 2 h (FIG. 18)
Source text: The effect of the sequential addition of CDA and bromine-containing biocide was studied using P. aeruginosa biofilm grown in the drip flow tubes (according to a modification of standard ASTM 2647-13, standard Test Method for Quantification of Pseudomonas aeruginosa Biofilm Grown Using Drip Flow Biofilm Reactor with Low Shear and Continuous Flow). This method produces massive biofilm resulting with harsh conditions that are very difficult to treat. The addition of the bromine-containing biocide took place 120 min after the addition of 310 nM CDA (the biocide that was tested in this study was DBNPA).
• a) A continuous once-through tube system was configured by using silicone coated latex tubes, connected to a peristaltic pump via additional silicone tubing. • b) The silicone coated latex tubes were inoculated by syringe injection of overnight cultures of P. aeruginosa (ATCC 700888), 5*10^7 CFU/ML in 10% TSB (Tryptic Soy Broth). […]
The following treatments were conducted: • 1. […] Each dilution was cultured in duplicate (on R2A agar) for colony growth using the pour plating method. • h) The plates were incubated at 36° C. for 17-20 h. • i) The appropriate number of colonies were counted. […]

## N#CC(Br)(Br)C(N)=O [DBNPA, 2,2-dibromo-3-nitrilopropionamide]
[1]; 1 h contact time, 3-day-old biofilm
  Log reduction vs. control: biocide alone: ~3 log units
[1]; 310 nM CDA combination vs biocide alone
  Enhancement: ~2 log units
[1]; 1 h CDA 310 nM then 1 h biocide
  Log reduction vs. control: combination of the 310 nM CDA and biocide: ~5 log units
[1]; text of Example 2, 310 nM commercial CDA (97% by GC)
  enhancement by combined treatment relative to biocide alone: two
[1]; text of Example 2, 1 h
  biofilm reduction by biocide alone: reduces the biofilm
[2]
  effect of biocide and CDA compared with biocide alone: improved effect
[3]
  effect of biocide and CDA compared with biocide alone: improved result
[4]
  effect of biocide and CDA compared with biocide alone: improved result
[5]
  degradation under storage (HPLC): Neither DBNPA nor CDA underwent degradation
[6]
  enhancement of biocidal effect by combined treatment over biocide alone: ~2 log orders
